# Legend:
# patients with PFIC = experiment: PEDFIC 2 open-label phase 3 extension trial, interim analysis: efficacy; format: in vivo, human; details: for mean change from baseline in sBAs through PEDFIC 2 week 12: odevixibat naive at PEDFIC 2 baseline
# Description: After treatment in the first trial (Example 1), patients were eligible to enroll in a second trial, a 72-week open-label extension trial. In this ongoing 72-week open-label extension trial, PFIC patients were treated with odevixibat 120 μg/kg/day. The 69 patients (PFIC1 (26%), PFIC2 (65%) or PFIC3 (7%)) treated with 120 μg/kg/day for up to 48 weeks experienced a durable effect on serum bile acids reduction and improvement in growth velocity based on review of z scores for height, weight and BMI, and improvement in ALT, AST and total bilirubin. The effects were maintained for patients treated for 18 months or longer. The example details the interim analysis through 24 weeks of treatment.
# Study Design • This phase 3 study included a screening period (for newly enrolled patients [i.e., cohort 2] only) and a 72-week treatment period (FIG. 9) in which all patients received oral, once-daily odevixibat 120 μg/kg. • Patients returned to the clinic 4 and 12 weeks after the first dose of odevixibat and then approximately every 10 to 12 weeks thereafter. • Following the 72-week treatment period, patients either enrolled in an optional extension for continued treatment or returned for a follow-up visit 4 weeks after ending study drug. Outcomes, Assessments, and Statistical Analysis • The primary efficacy outcomes were to assess the effects of odevixibat on sBAs and pruritus, including mean changes and proportion of patients meeting response criteria. • sBA responders were defined as patients who achieved a normalization of sBAs or reduction of ≥70%. • Pruritus responders were defined as patients who achieved a ≥1-point drop on the pruritus assessment. • Secondary outcomes included characterizing the long-term safety and tolerability of odevixibat, as well as the effects of odevixibat on growth, biliary diversion and/or liver transplantation, and markers of cholestasis and liver disease. • For the P1O and PIP groups, there were 2 baselines (PEDFIC 1 baseline and PEDFIC 2 baseline); for those in cohort 2, baseline refers to the value prior to initiation of odevixibat in PEDFIC 2. • This interim analysis focuses on data collected after 24 weeks of treatment in PEDFIC 2. • T tests were used to calculate P values for primary outcomes in the P1O group only; other outcomes were summarized descriptively.
# [1] = tested on: children with PFIC1 or PFIC2; experiment: PEDFIC 1: quality of life (PedsQL and PedsQL Family Impact Module); format: in vivo, human
# Description: Study design and eligibility was as follows. In PEDFIC 1, patients were randomized 1:1:1 to receive oral, once-daily placebo, odevixibat 40 μg/kg/day, or odevixibat 120 μg/kg/day for 24 weeks; patients who completed 24 weeks of treatment could enroll in an open-label extension. Patients between the ages of 6 months and 18 years with a diagnosis of PFIC1 or PFIC2 were eligible for the study if they had elevated serum bile acid levels (defined as ≥100 μmol/L averaged from 2 samples taken prior to randomization, ≥7 days apart) and significant pruritus as reported by caregivers (average score ≥2 on a scale of 0-4 in the 2 weeks prior to randomization using an observer-reported outcome instrument).
# A change from baseline to week 24 for the Pediatric QoL Inventory (PedsQL) questionnaire was assessed as an exploratory endpoint. Caregivers of patients ≥2 years old completed the PedsQL questionnaire, which assessed patient functioning in physical, emotional, social, and school domains; the output is a score between 0 and 100, where higher scores indicate better functioning and a higher change from baseline indicates an improvement in QoL, In addition, caregivers completed the PedsQL Family Impact Module, which assesses physical, emotional, social, and cognitive functioning as well as communication, worry, daily activities, and family relationship domains, also on a scale of 0 to 100. Total scores at baseline and at week 24 for all treatment groups as well as mean changes in scores from baseline to week 24 are presented for both odevixibat doses combined vs placebo; these are summarized descriptively.
# [2] = Cohort 2, through week 24 of PEDFIC 2, n 4
# [3] = P1O, through week 24 of PEDFIC 2, n 21
# [4] = P1P, through week 24 of PEDFIC 2, n 9
# [5] = PEDFIC 1, all doses, placebo 7.9
# [6] = Week 24, 120 μg/kg/day (n = 15)
smiles,measurement,setting,value
"CCCCC1(CCCC)CN(c2ccccc2)c2cc(SC)c(OCC(=O)N[C@@H](C(=O)N[C@@H](CC)C(=O)O)c3ccc(O)cc3)cc2S(=O)(=O)N1 [Odevixibat, 1,1-dioxo-3,3-dibutyl-5-phenyl-7-methylthio-8-(N-{(R)-α-[N-((S)-1-carboxypropyl)carbamoyl]-4-hydroxybenzyl}carbamoylmethoxy)-2,3,4,5-tetrahydro-1,2,5-benzothiadiazepine]","PELD/MELD, Mean Change From Baseline (SE)","patients with PFIC; Cohort 2, through week 24 of PEDFIC 2, n 2",1.7 (5.8)
same,"APRI, Mean Change From Baseline (SE)",patients with PFIC; [2],0.1 (0.2)
same,"Serum ALT, Mean Change From Baseline (SE)",patients with PFIC; [2],−9.8 (31.1) U/L
same,"Serum AST, Mean Change From Baseline (SE)",patients with PFIC; [2],−7.8 (16.2) U/L
same,"Total bilirubin, Mean Change From Baseline (SE)",patients with PFIC; [2],−0.2 (0.5) mg/dL
same,mean sBAs at PEDFIC 2 week 24,"patients with PFIC; P1O group, ~48 weeks cumulative odevixibat exposure, PEDFIC 1 baseline 251.8",85.1 µmol/L
same,mean monthly pruritus score at PEDFIC 2 week 24,"patients with PFIC; P1O group, PEDFIC 1 baseline 3.0",1.4
same,mean height Z score at week 24 of PEDFIC 2,"patients with PFIC; P1O group, PEDFIC 1 baseline −1.6",−0.5
same,mean weight Z score after 48 weeks,"patients with PFIC; P1O group, baseline −0.9",0.2
same,"PELD/MELD, Mean Change From Baseline (SE)","patients with PFIC; P1O, through week 24 of PEDFIC 2, n 17",−0.2 (0.3)
same,"APRI, Mean Change From Baseline (SE)","patients with PFIC; P1O, through week 24 of PEDFIC 2, n 18",−0.0 (0.1)
same,"Serum AST, Mean Change From Baseline (SE)","patients with PFIC; P1O, through week 24 of PEDFIC 2, n 20",−14.6 (10.0) U/L
same,"Serum ALT, Mean Change From Baseline (SE)",patients with PFIC; [3],−26.9 (22.6) U/L
same,"Total bilirubin, Mean Change From Baseline (SE)",patients with PFIC; [3],−0.2 (0.1) mg/dL
same,mean sBAs over the course of PEDFIC 2,"patients with PFIC; P1P group (placebo in PEDFIC 1), 120 μg/kg/day, PEDFIC 2 baseline 270.8",155.6 µmol/L
same,"APRI, Mean Change From Baseline (SE)",patients with PFIC; [4],0.1 (0.1)
same,"PELD/MELD, Mean Change From Baseline (SE)",patients with PFIC; [4],−1.4 (1.2)
same,"Serum ALT, Mean Change From Baseline (SE)",patients with PFIC; [4],16.3 (20.7) U/L
same,"Serum AST, Mean Change From Baseline (SE)",patients with PFIC; [4],−1.7 (5.6) U/L
same,"Total bilirubin, Mean Change From Baseline (SE)",patients with PFIC; [4],−1.6 (1.3) mg/dL
same,patients who underwent surgical biliary diversion or had a liver transplant,"patients with PFIC; PEDFIC 1 baseline through week 24 of PEDFIC 2, 2 patients",3%
same,change in mean sBAs from baseline to week 12 of PEDFIC 2,"patients with PFIC; cohort 2 (newly enrolled), 120 μg/kg/day",-73.1 µmol/L
same,mean sBAs at week 12 of PEDFIC 2,"patients with PFIC; cohort 2 (newly enrolled), 120 μg/kg/day, baseline 221.5",157.0 µmol/L
same,mean change from baseline in sBAs through PEDFIC 2 week 12,"patients with PFIC; PFIC1, n=5",−31.7
same,mean change from baseline in sBAs through PEDFIC 2 week 12,"patients with PFIC; PFIC2, n=17",−120.8
same,mean change from baseline in sBAs through PEDFIC 2 week 12,"patients with PFIC; PFIC3, n=3",−107.5
same,average sBAs relative to published threshold for PFIC2 disease modification,patients with PFIC; patients treated for 48 weeks,fell below the published threshold for PFIC2 disease modification
same,"PedsQL total score, mean change from baseline to week 24","[1]; PEDFIC 1, all doses, placebo 0.5",7.8
same,"PedsQL Family Impact Module Family relationships, mean change from baseline to week 24","[1]; PEDFIC 1, all doses, placebo 2.1",10.9
same,"PedsQL Family Impact Module Cognitive, mean change from baseline to week 24","[1]; PEDFIC 1, all doses, placebo 3.2",16.4
same,"PedsQL Family Impact Module Total score, mean change from baseline to week 24","[1]; PEDFIC 1, all doses, placebo 5.6",14.5
same,"PedsQL Family Impact Module Emotional, mean change from baseline to week 24",[1]; [5],13.4
same,"PedsQL Family Impact Module Worry, mean change from baseline to week 24",[1]; [5],12.8
same,"PedsQL Family Impact Module Physical, mean change from baseline to week 24","[1]; PEDFIC 1, all doses, placebo 8.1",18.9
same,"PedsQL Family Impact Module Social, mean change from baseline to week 24","[1]; PEDFIC 1, all doses, placebo 8.5",13.5
same,"PedsQL Family Impact Module Daily activities, mean change from baseline to week 24","[1]; PEDFIC 1, all doses, placebo 9.3",21.1
same,"PedsQL Emotional functioning, mean change from baseline to week 24","[1]; PEDFIC 1, all doses, placebo 13.5",14.1
same,"PedsQL Social functioning, mean change from baseline to week 24","[1]; PEDFIC 1, all doses, placebo −1.0",3.6
same,"PedsQL Family Impact Module Communication, mean change from baseline to week 24","[1]; PEDFIC 1, all doses, placebo −4.4",8.3
same,"PedsQL school functioning, mean change from baseline to week 24","[1]; PEDFIC 1, all doses, placebo −5.3",2.3
same,"PedsQL Physical functioning, mean change from baseline to week 24","[1]; PEDFIC 1, all doses, placebo −5.9",7.8
same,"PedsQL Family Impact Module Cognitive functioning, Mean (SE)","[1]; Week 24, 40 μg/kg/day (n = 19)",65.3 (4.9)
same,"PedsQL Family Impact Module Communication, Mean (SE)","[1]; Week 24, 40 μg/kg/day (n = 19)",57.0 (5.6)
same,"PedsQL Family Impact Module Daily activities, Mean (SE)","[1]; Week 24, 40 μg/kg/day (n = 19)",50.9 (6.1)
same,"PedsQL Family Impact Module Emotional functioning, Mean (SE)","[1]; Week 24, 40 μg/kg/day (n = 19)",55.8 (5.6)
same,"PedsQL Family Impact Module Family relationships, Mean (SE)","[1]; Week 24, 40 μg/kg/day (n = 19)",68.7 (5.9)
same,"PedsQL Family Impact Module Physical functioning, Mean (SE)","[1]; Week 24, 40 μg/kg/day (n = 19)",57.0 (5.7)
same,"PedsQL Family Impact Module Social functioning, Mean (SE)","[1]; Week 24, 40 μg/kg/day (n = 19)",61.8 (6.4)
same,"PedsQL Family Impact Module Total score, Mean (SE)","[1]; Week 24, 40 μg/kg/day (n = 19)",58.4 (4.7)
same,"PedsQL Family Impact Module Worry, Mean (SE)","[1]; Week 24, 40 μg/kg/day (n = 19)",47.9 (5.3)
same,"PedsQL School functioning, Mean (SE)","[1]; Week 24, 40 μg/kg/day, n 9",53.2 (5.2)
same,"PedsQL Emotional functioning, Mean (SE)","[1]; Week 24, 40 μg/kg/day, n 13",54.6 (4.7)
same,"PedsQL Physical functioning, Mean (SE)","[1]; Week 24, 40 μg/kg/day, n 13",56.3 (4.0)
same,"PedsQL Social functioning, Mean (SE)","[1]; Week 24, 40 μg/kg/day, n 13",63.1 (6.4)
same,"PedsQL Total score, Mean (SE)","[1]; Week 24, 40 μg/kg/day, n 13",56.8 (4.0)
same,"PedsQL Family Impact Module Cognitive functioning, Mean (SE)",[1]; [6],67.7 (6.2)
same,"PedsQL Family Impact Module Communication, Mean (SE)",[1]; [6],68.9 (5.6)
same,"PedsQL Family Impact Module Daily activities, Mean (SE)",[1]; [6],54.4 (8.1)
same,"PedsQL Family Impact Module Emotional functioning, Mean (SE)",[1]; [6],63.0 (5.9)
same,"PedsQL Family Impact Module Family relationships, Mean (SE)",[1]; [6],72.7 (5.6)
same,"PedsQL Family Impact Module Physical functioning, Mean (SE)",[1]; [6],63.3 (5.6)
same,"PedsQL Family Impact Module Social functioning, Mean (SE)",[1]; [6],64.6 (7.6)
same,"PedsQL Family Impact Module Total score, Mean (SE)",[1]; [6],63.5 (5.3)
same,"PedsQL Family Impact Module Worry, Mean (SE)",[1]; [6],52.0 (5.8)
same,"PedsQL School functioning, Mean (SE)","[1]; Week 24, 120 μg/kg/day, n 10",63.3 (7.6)
same,"PedsQL Emotional functioning, Mean (SE)","[1]; Week 24, 120 μg/kg/day, n 11",59.6 (6.9)
same,"PedsQL Physical functioning, Mean (SE)","[1]; Week 24, 120 μg/kg/day, n 11",56.8 (8.7)
same,"PedsQL Social functioning, Mean (SE)","[1]; Week 24, 120 μg/kg/day, n 11",65.9 (8.6)
same,"PedsQL Total score, Mean (SE)","[1]; Week 24, 120 μg/kg/day, n 11",60.7 (7.0)
same,"PedsQL Family Impact Module Cognitive functioning, Mean (SE)","[1]; Week 24, All Doses (n = 34)",66.3 (3.8)
same,"PedsQL Family Impact Module Communication, Mean (SE)","[1]; Week 24, All Doses (n = 34)",62.3 (4.1)
same,"PedsQL Family Impact Module Daily activities, Mean (SE)","[1]; Week 24, All Doses (n = 34)",52.5 (4.9)
same,"PedsQL Family Impact Module Emotional functioning, Mean (SE)","[1]; Week 24, All Doses (n = 34)",59.0 (4.1)
same,"PedsQL Family Impact Module Family relationships, Mean (SE)","[1]; Week 24, All Doses (n = 34)",70.4 (4.1)
same,"PedsQL Family Impact Module Physical functioning, Mean (SE)","[1]; Week 24, All Doses (n = 34)",59.8 (4.0)
same,"PedsQL Family Impact Module Social functioning, Mean (SE)","[1]; Week 24, All Doses (n = 34)",63.1 (4.8)
same,"PedsQL Family Impact Module Total score, Mean (SE)","[1]; Week 24, All Doses (n = 34)",60.6 (3.5)
same,"PedsQL Family Impact Module Worry, Mean (SE)","[1]; Week 24, All Doses (n = 34)",49.7 (3.9)
same,"PedsQL School functioning, Mean (SE)","[1]; Week 24, All Doses, n 19",58.5 (4.7)
same,"PedsQL Emotional functioning, Mean (SE)","[1]; Week 24, All Doses, n 24",56.9 (4.0)
same,"PedsQL Physical functioning, Mean (SE)","[1]; Week 24, All Doses, n 24",56.5 (4.4)
same,"PedsQL Social functioning, Mean (SE)","[1]; Week 24, All Doses, n 24",64.4 (5.1)
same,"PedsQL Total score, Mean (SE)","[1]; Week 24, All Doses, n 24",58.6 (3.8)
